Assay results from patent publication US20100298141A1, “SUBSTITUTED PYRIDINE N-OXIDE HERBICIDES” (E. I. DU PONT DE NEMOURS AND COMPANY, priority 2007, published 2010).

Columns and labels:
downy brome = test: Test C pre-/postemergence test; assay type: in vivo, Bromus tectorum; settings: for Plant response rating, Bromegrass, Downy: 31 g ai/ha, scale 0 to 100 (0 no effect, 100 complete control)
Procedure, shortened: (§1)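 Compounds in a non-phytotoxic solvent with surfactant applied preemergence to seeded pots and, at the same time, postemergence to plants 2–18 cm tall (1- to 4-leaf stage). Paddy tests: pots flooded to 3 cm, compound applied into the water, depth held throughout.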

catchweed bedstraw = test: Test C pre-/postemergence test; assay type: in vivo, Galium aparine; settings: for Plant response rating, Galium: 31 g ai/ha, scale 0 to 100 (0 no effect, 100 complete control)
Procedure, shortened: as §1

morningglory = test: Test A pre-/postemergence greenhouse test; assay type: in vivo, Ipomoea spp.; settings: for Morningglory plant response rating: 0 to 100 scale; for Plant response rating, Morningglory: 0 to 100 scale where 0 is no effect and 100 is complete control
Procedure, shortened: (§2)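 Two application timings were run side by side in the greenhouse. Before emergence, compound went onto the soil surface of loam–sand pots as a directed spray; after emergence, plants at 2–10 cm and the one- to two-leaf stage were treated. Visual injury versus controls was rated at approximately day ten.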

bermudagrass = test: Test C pre-/postemergence test; assay type: in vivo, Cynodon dactylon; settings: for Plant response rating, Bermudagrass: 31 g ai/ha
Procedure, shortened: as §1

soybean = test: Test C pre-/postemergence test; assay type: in vivo, Glycine max; settings: for Plant response rating, Soybean: 31 g ai/ha, scale 0 to 100 (0 no effect, 100 complete control)
Procedure, shortened: as §1

redroot pigweed = test: Test A pre-/postemergence greenhouse test; assay type: in vivo, Amaranthus retroflexus; settings: for Pigweed plant response rating: 0 to 100 scale; for Plant response rating, Pigweed: 0 to 100 scale where 0 is no effect and 100 is complete control
Procedure, shortened: as §2

woolly cupgrass = test: Test C pre-/postemergence test; assay type: in vivo, Eriochloa villosa; settings: for Plant response rating, Cupgrass, Woolly: 31 g ai/ha, scale 0 to 100 (0 no effect, 100 complete control)
Procedure, shortened: as §1

green foxtail = test: Test C pre-/postemergence test; assay type: in vivo, Setaria viridis; settings: for Plant response rating, Foxtail, Green: 31 g ai/ha, scale 0 to 100 (0 no effect, 100 complete control)
Procedure, shortened: as §1

duck salad = test: Test C flooded paddy test; assay type: in vivo, Heteranthera limosa; settings: Flood
Procedure, shortened: (§3)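 Ratings were visual and made relative to untreated controls after 13 to 15 greenhouse days.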

kochia = test: Test C pre-/postemergence test; assay type: in vivo, Kochia scoparia; settings: for Plant response rating, Kochia: 31 g ai/ha, scale 0 to 100 (0 no effect, 100 complete control)
Procedure, shortened: as §1

blackgrass = test: Test C pre-/postemergence test; assay type: in vivo, Alopecurus myosuroides; settings: for Plant response rating, Blackgrass: 31 g ai/ha, scale 0 to 100 (0 no effect, 100 complete control)
Procedure, shortened: as §1

rice = test: Test C flooded paddy test; assay type: in vivo, Oryza sativa; settings: Flood
Procedure, shortened: as §3

cocklebur = test: Test C pre-/postemergence test; assay type: in vivo, Xanthium strumarium; settings: for Plant response rating, Cocklebur: 31 g ai/ha, scale 0 to 100 (0 no effect, 100 complete control)
Procedure, shortened: as §1

wild oat = test: Test C pre-/postemergence test; assay type: in vivo, Avena fatua; settings: for Plant response rating, Oat, Wild: 31 g ai/ha, scale 0 to 100 (0 no effect, 100 complete control)
Procedure, shortened: as §1

lambsquarters = test: Test C pre-/postemergence test; assay type: in vivo, Chenopodium album
Procedure, shortened: as §1

yellow nutsedge = test: Test C pre-/postemergence test; assay type: in vivo, Cyperus esculentus; settings: for Plant response rating, Nutsedge, Yellow: 31 g ai/ha, scale 0 to 100 (0 no effect, 100 complete control)
Procedure, shortened: as §1

[1] = 62 g ai/ha, Preemergence, scale 0 to 100
[2] = preemergence, 125 g ai/ha, scale 0 (no effect) to 100 (complete control)
[3] = Postemergence, 125 g ai/ha, 0 is no effect, 100 is complete control
[4] = Postemergence, 500 g ai/ha, 0 is no effect, 100 is complete control
[5] = Preemergence, 125 g ai/ha, 0 no effect, 100 complete control
[6] = 62 g ai/ha, Preemergence, scale 0 to 100 (0 no effect, 100 complete control)
[7] = Preemergence, scale 0 to 100 (0 no effect, 100 complete control)
[8] = 31 g ai/ha, scale 0 to 100 (0 no effect, 100 complete control)
[9] = 62 g ai/ha, scale 0 to 100, 0 no effect, 100 complete control, 13 to 15 days
[10] = 125 g ai/ha, scale 0 to 100, 0 no effect, 100 complete control, 13 to 15 days
[11] = 250 g ai/ha, scale 0 to 100 (0 no effect, 100 complete control)
[12] = 125 g ai/ha, preemergence, scale 0 (no effect) to 100 (complete control)
[13] = preemergence, 250 g ai/ha, scale 0 (no effect) to 100 (complete control)
[14] = 62 g ai/ha, scale 0 to 100 (0 no effect, 100 complete control)
[15] = 250 g ai/ha, scale 0 to 100, 0 no effect, 100 complete control, 13 to 15 days

SMILES: Cn1nc(C(F)(F)F)c(CS(=O)(=O)c2cc(C(C)(C)C)cc[n+]2[O-])c1OC(F)F [Compound 25]
- Bromegrass, Downy plant response rating (downy brome; [1]): 0
- Plant response rating, Bromegrass, Downy (downy brome; Preemergence): 0
- Plant response rating (0 to 100), Bromegrass, Downy (downy brome; Preemergence, 250 g ai/ha): 50
- Bromegrass, Downy plant response rating (downy brome; [2]): 0
- Galium plant response rating (catchweed bedstraw; [1]): 98
- Plant response rating, Galium (catchweed bedstraw; Preemergence): 70
- Plant response rating (0 to 100), Galium (catchweed bedstraw; Preemergence, 250 g ai/ha): 100
- Morningglory plant response rating (morningglory; [3]): 10
- Morningglory plant response rating (morningglory; [4]): 60
- Morningglory plant response rating (morningglory; [5]): 0
- Plant response rating, Morningglory (morningglory; Preemergence, 500 g ai/ha): 80
- Bermudagrass plant response rating (bermudagrass; [6]): 100
- Plant response rating, Bermudagrass (bermudagrass; [7]): 75
- Plant response rating (0 to 100), Bermudagrass (bermudagrass; Preemergence, 250 g ai/ha): 100
- Bermudagrass plant response rating (bermudagrass; [2]): 100
- Soybean plant response rating (soybean; [1]): 20
- Plant response rating, Soybean (soybean; Preemergence): 0
- Pigweed plant response rating (redroot pigweed; [3]): 30
- Pigweed plant response rating (redroot pigweed; [4]): 40
- Pigweed plant response rating (redroot pigweed; [5]): 100
- Plant response rating, Pigweed (redroot pigweed; Preemergence, 500 g ai/ha): 100
- Cupgrass, Woolly plant response rating (woolly cupgrass; [1]): 60
- Plant response rating, Cupgrass, Woolly (woolly cupgrass; Preemergence): 40
- Plant response rating (0 to 100), Cupgrass, Woolly (woolly cupgrass; Preemergence, 250 g ai/ha): 100
- Foxtail, Green plant response rating (green foxtail; [1]): 98
- Plant response rating, Foxtail, Green (green foxtail; Preemergence): 80
- Plant response rating (0 to 100), Foxtail, Green (green foxtail; Preemergence, 250 g ai/ha): 100
- Plant response rating, Ducksalad (duck salad; [8]): 0
- Plant response rating, Ducksalad (duck salad; [9]): 40
- Plant response rating, Ducksalad (duck salad; [10]): 60
- Plant response rating, Ducksalad (duck salad; [11]): 80
- Plant response rating, Kochia (kochia; Preemergence): 0
- Blackgrass plant response rating (blackgrass; [1]): 0
- Plant response rating, Blackgrass (blackgrass; Preemergence): 0
- Plant response rating (0 to 100), Blackgrass (blackgrass; Preemergence, 250 g ai/ha): 0
- Blackgrass plant response rating (blackgrass; [2]): 0
- Plant response rating, Rice (rice; [8]): 0
- Plant response rating, Rice (rice; [9]): 0
- Plant response rating, Rice (rice; [10]): 65
- Plant response rating, Rice (rice; [11]): 75
- Cocklebur plant response rating (cocklebur; [1]): 0
- Plant response rating, Cocklebur (cocklebur; Preemergence): 0
- Plant response rating (0 to 100), Cocklebur (cocklebur; Preemergence, 250 g ai/ha): 0
- Cocklebur plant response rating (cocklebur; [2]): 0
- Oat, Wild plant response rating (wild oat; [1]): 85
- Plant response rating, Oat, Wild (wild oat; Preemergence): 0
- Lambsquarters plant response rating (lambsquarters; [1]): 60
- Nutsedge, Yellow plant response rating (yellow nutsedge; [1]): 80
- Plant response rating, Nutsedge, Yellow (yellow nutsedge; Preemergence): 0

SMILES: C#CCOc1c(C[S+]([O-])c2cccc[n+]2[O-])c(C(F)(F)F)nn1C (stereo not shown) [Compound 76]
- Bromegrass, Downy plant response rating (downy brome; [1]): 45
- Bromegrass, Downy plant response rating (downy brome; [12]): 60
- Plant response rating, Bromegrass, Downy (downy brome; Preemergence): 0
- Bromegrass, Downy plant response rating (downy brome; [13]): 85
- Galium plant response rating (catchweed bedstraw; [1]): 100
- Galium plant response rating (catchweed bedstraw; [12]): 100
- Plant response rating, Galium (catchweed bedstraw; Preemergence): 100
- Galium plant response rating (catchweed bedstraw; [13]): 100
- Plant response rating, Morningglory (morningglory; Postemergence, 125 g ai/ha): 70
- Morningglory plant response rating (morningglory; [4]): 90
- Morningglory plant response rating (morningglory; [5]): 50
- Plant response rating, Morningglory (morningglory; Preemergence, 500 g ai/ha): 90
- Bermudagrass plant response rating (bermudagrass; [6]): 100
- Bermudagrass plant response rating (bermudagrass; [12]): 100
- Plant response rating, Bermudagrass (bermudagrass; [7]): 80
- Bermudagrass plant response rating (bermudagrass; [13]): 100
- Soybean plant response rating (soybean; [1]): 40
- Soybean plant response rating (soybean; [12]): 80
- Plant response rating, Soybean (soybean; Preemergence): 0
- Soybean plant response rating (soybean; [13]): 95
- Plant response rating, Pigweed (redroot pigweed; Postemergence, 125 g ai/ha): 50
- Pigweed plant response rating (redroot pigweed; [4]): 80
- Pigweed plant response rating (redroot pigweed; [5]): 70
- Plant response rating, Pigweed (redroot pigweed; Preemergence, 500 g ai/ha): 100
- Cupgrass, Woolly plant response rating (woolly cupgrass; [1]): 70
- Cupgrass, Woolly plant response rating (woolly cupgrass; [12]): 95
- Plant response rating, Cupgrass, Woolly (woolly cupgrass; Preemergence): 0
- Cupgrass, Woolly plant response rating (woolly cupgrass; [13]): 100
- Foxtail, Green plant response rating (green foxtail; [1]): 100
- Foxtail, Green plant response rating (green foxtail; [12]): 100
- Plant response rating, Foxtail, Green (green foxtail; Preemergence): 70
- Foxtail, Green plant response rating (green foxtail; [13]): 100
- Plant response rating, Ducksalad (duck salad; [14]): 0
- Plant response rating, Ducksalad (duck salad; [15]): 100
- Kochia plant response rating (kochia; [1]): 100
- Kochia plant response rating (kochia; [12]): 100
- Plant response rating, Kochia (kochia; Preemergence): 70
- Kochia plant response rating (kochia; [13]): 100
- Blackgrass plant response rating (blackgrass; [1]): 100
- Blackgrass plant response rating (blackgrass; [12]): 100
- Plant response rating, Blackgrass (blackgrass; Preemergence): 0
- Blackgrass plant response rating (blackgrass; [13]): 100
- Plant response rating, Rice (rice; [14]): 0
- Plant response rating, Rice (rice; [15]): 30
- Cocklebur plant response rating (cocklebur; [1]): 0
- Cocklebur plant response rating (cocklebur; [12]): 0
- Plant response rating, Cocklebur (cocklebur; Preemergence): 0
- Cocklebur plant response rating (cocklebur; [13]): 10
- Oat, Wild plant response rating (wild oat; [1]): 50
- Oat, Wild plant response rating (wild oat; [12]): 60
- Plant response rating, Oat, Wild (wild oat; Preemergence): 0
- Oat, Wild plant response rating (wild oat; [13]): 95
- Lambsquarters plant response rating (lambsquarters; [1]): 100
- Lambsquarters plant response rating (lambsquarters; [12]): 100
- Plant response rating, Lambsquarters (lambsquarters; Preemergence, 31 g ai/ha, scale 0 to 100 (0 no effect, 100 complete control)): 85
- Lambsquarters plant response rating (lambsquarters; [13]): 100
- Nutsedge, Yellow plant response rating (yellow nutsedge; [1]): 50
- Nutsedge, Yellow plant response rating (yellow nutsedge; [12]): 80
- Plant response rating, Nutsedge, Yellow (yellow nutsedge; Preemergence): 0
- Nutsedge, Yellow plant response rating (yellow nutsedge; [13]): 95
